Measurements published in ChEMBL document CHEMBL1914304 (J Med Chem, 2011).

Legend:
Raji = assay: Cytotoxicity against human Raji cells after 72 hrs by luminescence assay; type: cell-based
BJ = assay: Cytotoxicity against human BJ cells after 72 hrs by luminescence assay; type: cell-based
HepG2 = assay: Cytotoxicity against human HepG2 cells after 72 hrs by luminescence assay; type: cell-based; conditions: hepg2, 72 h
HEK293 = assay: Cytotoxicity against human HEK293 cells after 72 hrs by luminescence assay; type: cell-based; conditions: hek293, 72 h
[1] = Selectivity ratio of EC50 for human HepG2 cells to EC50 for Plasmodium falciparum

SMILES: Cl.O=C(CCc1ccc(F)cc1)c1ccccc1OCC(O)CN1CCN(c2ccc(F)cc2)CC1 (racemic)
- Activity (Raji): Non-toxic
- Activity (BJ): Non-toxic
- Activity (HepG2): Non-toxic
- Activity (HEK293): Non-toxic
- selectivity ratio [1]: > 10

SMILES: Cl.O=C(CCc1ccc(F)cc1)c1ccccc1OCC(O)CN1CCN(c2ccc([N+](=O)[O-])cc2)CC1 (racemic)
- Activity (Raji): Non-toxic
- Activity (BJ): Non-toxic
- Activity (HepG2): Non-toxic
- Activity (HEK293): Non-toxic
- selectivity ratio [1]: > 10

SMILES: Cl.Nc1ccc(N2CCN(CC(O)COc3ccccc3C(=O)CCc3ccc(F)cc3)CC2)cc1 (racemic)
- Activity (Raji): Non-toxic
- Activity (BJ): Non-toxic
- Activity (HepG2): Non-toxic
- Activity (HEK293): Non-toxic
- selectivity ratio [1]: > 10

SMILES: Cl.O=C(CCc1ccc(F)cc1)c1ccccc1OCC(O)CN1CCN(c2ccc(O)cc2)CC1 (racemic)
- Activity (Raji): Non-toxic
- Activity (BJ): Non-toxic
- Activity (HepG2): Non-toxic
- Activity (HEK293): Non-toxic
- selectivity ratio [1]: > 10

SMILES: Cl.O=C(CCc1ccc(F)cc1)c1ccccc1OCC(O)CN1CCN(c2ccc(C(F)(F)F)cc2)CC1 (racemic)
- Activity (Raji): Non-toxic
- Activity (BJ): Non-toxic
- Activity (HepG2): Non-toxic
- Activity (HEK293): Non-toxic
- selectivity ratio [1]: > 10

SMILES: Cl.O=C(CCc1ccc(F)cc1)c1ccccc1OCC(O)CN1CCN(C(=O)c2ccccc2)CC1 (racemic)
- Activity (Raji): Non-toxic
- Activity (BJ): Non-toxic
- Activity (HepG2): Non-toxic
- Activity (HEK293): Non-toxic
- selectivity ratio [1]: > 10

SMILES: CN1CCN(CC(O)COc2ccccc2C(=O)CCc2ccc(F)cc2)CC1.Cl (racemic)
- Activity (Raji): Non-toxic
- Activity (BJ): Non-toxic
- Activity (HepG2): Non-toxic
- Activity (HEK293): Non-toxic
- selectivity ratio [1]: > 10

SMILES: CCN1CCN(CC(O)COc2ccccc2C(=O)CCc2ccc(F)cc2)CC1.Cl (racemic)
- Activity (Raji): Non-toxic
- Activity (BJ): Non-toxic
- Activity (HepG2): Non-toxic
- Activity (HEK293): Non-toxic
- selectivity ratio [1]: > 10

SMILES: Cl.O=C(CCc1ccc(F)cc1)c1ccccc1OCC(O)CN1CCOCC1 (racemic)
- Activity (Raji): Non-toxic
- Activity (BJ): Non-toxic
- Activity (HepG2): Non-toxic
- Activity (HEK293): Non-toxic
- selectivity ratio [1]: > 10

SMILES: Cl.O=C(CCc1ccccc1)c1cc(F)ccc1OCC(O)CN1CCC(Cc2ccccc2)CC1 (racemic)
- Activity (Raji): Non-toxic
- Activity (BJ): Non-toxic
- Activity (HepG2): Non-toxic
- Activity (HEK293): Non-toxic
- selectivity ratio [1]: > 10

SMILES: Cl.O=C(CCc1ccccc1)c1cc(F)ccc1OCC(O)CN1CCC(O)(Cc2ccccc2)CC1 (racemic)
- Activity (Raji): Non-toxic
- Activity (BJ): Non-toxic
- Activity (HepG2): Non-toxic
- Activity (HEK293): Non-toxic
- selectivity ratio [1]: > 10

SMILES: Cl.O=C(CCc1ccccc1)c1cc(F)ccc1OCC(O)CN1CCNCC1 (racemic)
- Activity (Raji): Non-toxic
- Activity (BJ): Non-toxic
- Activity (HepG2): Non-toxic
- Activity (HEK293): Non-toxic
- selectivity ratio [1]: > 10

SMILES: Cl.O=C(CCc1ccccc1)c1cc(F)ccc1OCC(O)CN1CCC(c2ccccc2)CC1 (racemic)
- Activity (Raji): Non-toxic
- Activity (BJ): Non-toxic
- Activity (HepG2): Non-toxic
- Activity (HEK293): Non-toxic
- selectivity ratio [1]: > 10

SMILES: Cl.O=C(CCc1ccccc1)c1cc(F)ccc1OCC(O)CN1CCN(c2ccc(Cl)cc2)CC1 (racemic)
- Activity (Raji): Non-toxic
- Activity (BJ): Non-toxic
- Activity (HepG2): Non-toxic
- Activity (HEK293): Non-toxic
- selectivity ratio [1]: > 10

SMILES: Cl.O=C(CCc1ccccc1)c1cc(F)ccc1OCC(O)CN1CCN(c2ccccc2)CC1 (racemic)
- Activity (Raji): Non-toxic
- Activity (BJ): Non-toxic
- Activity (HepG2): Non-toxic
- Activity (HEK293): Non-toxic
- selectivity ratio [1]: > 10
